Test results from US6737383B1, “Herbicidal oxadiazolidines” (priority 1999, dated 2004).

Assays:
morningglory = assay: Test B pre/postemergence morningglory; format: in vivo, Ipomoea hederacea
How it was run: (§1)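 Response is a visual 0-to-10 score relative to untreated plants, where 0 means no effect and 10 means complete control, taken twelve to sixteen days after application. Treatments went onto soil at planting and onto foliage of 1- to 4-leaf plants, using a surfactant-containing non-phytotoxic solvent.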

pigweed = assay: Test B pre/postemergence pigweed; format: in vivo, Amaranthus retroflexus
How it was run: as §1

sugar beet = assay: Test B pre/postemergence sugar beet; format: in vivo, Beta vulgaris
How it was run: as §1

blackgrass = assay: Test B pre/postemergence blackgrass; format: in vivo, Alopecurus myosuroides
How it was run: as §1

wheat = assay: Test B pre/postemergence wheat; format: in vivo, Triticum aestivum
How it was run: as §1

wild oat = assay: Test B pre/postemergence wild oat; format: in vivo, Avena fatua
How it was run: as §1

purple nutsedge = assay: Test B pre/postemergence purple nutsedge; format: in vivo, Cyperus rotundus
How it was run: as §1

rape = assay: Test B pre/postemergence rape; format: in vivo, Brassica napus
How it was run: as §1

smallflower flatsedge = assay: Test B flood test smallflower flatsedge; format: in vivo, Cyperus difformis
How it was run: (§2)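 Read-out is a visual response score from 0 (no effect) to 10 (complete control), assigned by comparison with untreated controls. Treatment was applied at the 2-leaf stage, and plants stayed in the greenhouse for twelve to sixteen days before scoring.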

corn = assay: Test B pre/postemergence corn; format: in vivo, Zea mays
How it was run: as §1

bedstraw = assay: Test B pre/postemergence bedstraw; format: in vivo, Galium aparine; conditions: Postemergence; for Bedstraw plant response rating: scale of 0 to 10, 0 is no effect, 10 is complete control
How it was run: as §1

cocklebur = assay: Test B pre/postemergence cocklebur; format: in vivo, Xanthium strumarium
How it was run: as §1

velvetleaf = assay: Test B pre/postemergence velvetleaf; format: in vivo, Abutilon theophrasti
How it was run: as §1

soybean = assay: Test B pre/postemergence soybean; format: in vivo, Glycine max
How it was run: as §1

giant foxtail = assay: Test B pre/postemergence giant foxtail; format: in vivo, Setaria faberii
How it was run: as §1

bamyardgrass = assay: Test B flood test barnyardgrass; format: in vivo, Echinochloa crus-galli
How it was run: as §2

crabgrass = assay: Test B pre/postemergence crabgrass; format: in vivo, Digitaria sanguinalis
How it was run: as §1

rice = assay: Test B flood test rice; format: in vivo, Oryza sativa
How it was run: as §2

surinam grass = assay: Test B pre/postemergence surinam grass; format: in vivo, Brachiaria decumbens
How it was run: as §1

duck salad = assay: Test B flood test duck salad; format: in vivo, Heteranthera limosa
How it was run: as §2

[1] = Postemergence, Rate 62 g/ha, scale of 0 to 10, 0 is no effect, 10 is complete control
[2] = Postemergence, Rate 125 g/ha, scale of 0 to 10 where 0 is no effect and 10 is complete control
[3] = Postemergence, Rate 250 g/ha, scale of 0 to 10, 0 is no effect, 10 is complete control
[4] = Preemergence, Rate 62 g/ha, scale 0 to 10 (0 no effect, 10 complete control)
[5] = Preemergence, Rate 125 g/ha, scale of 0 to 10 where 0 is no effect and 10 is complete control
[6] = Preemergence, Rate 500 g/ha, scale of 0 to 10 where 0 is no effect and 10 is complete control
[7] = Postemergence, Rate 500 g/ha, scale of 0 to 10 where 0 is no effect and 10 is complete control
[8] = Rate 62 g/ha, flood test species, Pre-emergence, visual evaluation after twelve to sixteen days
[9] = Rate 125 g/ha, under heading Pre-emergence, flood test species, visual evaluation after twelve to sixteen days
[10] = Rate 250 g/ha, Pre-emergence (flood test species), scale 0 to 10, 0 is no effect, 10 is complete control
[11] = Rate 500 g/ha, Pre-emergence section of Table B, 0 to 10 scale (0 no effect, 10 complete control)

## CC(C)N(C(=O)n1oc(=O)n(CC(=O)N(C)C)c1=O)c1ccc(F)cc1 [Compound 586]
morningglory; [1]
  Morningglory plant response rating: 6
morningglory; [2]
  Plant response rating, Morningglory: 10
morningglory; [3]
  Morningglory plant response rating: 10
morningglory; [4]
  Morningglory plant response rating: 0
morningglory; [5]
  Morningglory plant response rating: 0
morningglory; [6]
  Morningglory plant response rating: 4
pigweed; [2]
  Plant response rating, Redroot pigweed: 0
pigweed; [3]
  Redroot pigweed plant response rating: 0
pigweed; [7]
  Plant response rating, Redroot pigweed: 2
pigweed; [4]
  Redroot pigweed plant response rating: 0
pigweed; [5]
  Redroot pigweed plant response rating: 8
pigweed; [6]
  Redroot pigweed plant response rating: 10
Sugar beet; [2]
  Plant response rating, Sugarbeets: 0
Sugar beet; [3]
  Sugarbeets plant response rating: 0
Sugar beet; [7]
  Plant response rating, Sugarbeets: 0
Sugar beet; [4]
  Sugarbeets plant response rating: 0
Sugar beet; [5]
  Sugarbeets plant response rating: 0
Sugar beet; [6]
  Sugarbeets plant response rating: 8
blackgrass; [1]
  Blackgrass plant response rating: 0
blackgrass; [2]
  Plant response rating, Blackgrass: 1
blackgrass; [3]
  Blackgrass plant response rating: 3
blackgrass; [7]
  Plant response rating, Blackgrass: 8
blackgrass; [4]
  Blackgrass plant response rating: 3
blackgrass; [5]
  Blackgrass plant response rating: 7
blackgrass; Preemergence, Rate 250 g/ha
  Blackgrass plant response rating (0 to 10 scale): 9
blackgrass; [6]
  Blackgrass plant response rating: 10
wheat; [2]
  Plant response rating, Wheat: 0
wheat; [3]
  Wheat plant response rating: 0
wheat; [7]
  Plant response rating, Wheat: 0
wheat; [4]
  Wheat plant response rating: 0
wheat; [5]
  Wheat plant response rating: 0
wheat; [6]
  Wheat plant response rating: 8
Wild oat; [2]
  Plant response rating, Wild oats: 0
Wild oat; [3]
  Wild oats plant response rating: 0
Wild oat; [7]
  Plant response rating, Wild oats: 0
Wild oat; [4]
  Wild oats plant response rating: 0
Wild oat; [5]
  Wild oats plant response rating: 3
Wild oat; [6]
  Wild oats plant response rating: 10
Purple nutsedge; [1]
  Nutsedge plant response rating: 0
Purple nutsedge; [2]
  Plant response rating, Nutsedge: 0
Purple nutsedge; [3]
  Nutsedge plant response rating: 0
Purple nutsedge; [7]
  Plant response rating, Nutsedge: 0
Purple nutsedge; [4]
  Nutsedge plant response rating: 0
Purple nutsedge; [5]
  Nutsedge plant response rating: 0
Purple nutsedge; [6]
  Nutsedge plant response rating: 2
rape; [1]
  Rape plant response rating: 0
rape; [2]
  Plant response rating, Rape: 0
rape; [3]
  Rape plant response rating: 0
rape; [7]
  Plant response rating, Rape: 0
rape; [4]
  Rape plant response rating: 0
rape; [5]
  Rape plant response rating: 0
rape; [6]
  Rape plant response rating: 4
Smallflower flatsedge; [8]
  Plant response rating, S. Flatsedge (0 to 10 scale, 0 is no effect, 10 is complete control): 0
Smallflower flatsedge; [9]
  S. Flatsedge plant response rating (0 to 10 scale, 0 is no effect, 10 is complete control): 0
Smallflower flatsedge; [10]
  S. Flatsedge plant response rating: 0
Smallflower flatsedge; [11]
  S. Flatsedge plant response rating: 0
corn; [1]
  Corn plant response rating: 0
corn; [2]
  Plant response rating, Corn: 0
corn; [3]
  Corn plant response rating: 2
corn; [7]
  Plant response rating, Corn: 3
corn; [4]
  Corn plant response rating: 0
corn; [5]
  Corn plant response rating: 0
corn; Preemergence, Rate 250 g/ha
  Corn plant response rating (0 to 10 scale): 0
corn; [6]
  Corn plant response rating: 0
bedstraw; Rate 62 g/ha
  Bedstraw plant response rating: 0
bedstraw; Rate 125 g/ha, scale of 0 to 10 where 0 is no effect and 10 is complete control
  Plant response rating, Bedstraw: 0
bedstraw; Rate 250 g/ha
  Bedstraw plant response rating: 0
cocklebur; [1]
  Cocklebur plant response rating: 0
cocklebur; [2]
  Plant response rating, Cocklebur: 0
cocklebur; [3]
  Cocklebur plant response rating: 0
cocklebur; [7]
  Plant response rating, Cocklebur: 0
cocklebur; [4]
  Cocklebur plant response rating: 0
cocklebur; [5]
  Cocklebur plant response rating: 0
cocklebur; Preemergence, Rate 250 g/ha
  Cocklebur plant response rating (0 to 10 scale): 0
cocklebur; [6]
  Cocklebur plant response rating: 0
velvetleaf; [2]
  Plant response rating, Velvetleaf: 0
velvetleaf; [3]
  Velvetleaf plant response rating: 0
velvetleaf; [7]
  Plant response rating, Velvetleaf: 1
velvetleaf; [4]
  Velvetleaf plant response rating: 0
velvetleaf; [5]
  Velvetleaf plant response rating: 0
velvetleaf; [6]
  Velvetleaf plant response rating: 7
soybean; [2]
  Plant response rating, Soybean: 3
soybean; [3]
  Soybean plant response rating: 3
soybean; [7]
  Plant response rating, Soybean: 3
soybean; [4]
  Soybean plant response rating: 0
soybean; [5]
  Soybean plant response rating: 0
soybean; [6]
  Soybean plant response rating: 0
Giant foxtail; [1]
  Giant foxtail plant response rating: 2
Giant foxtail; [2]
  Plant response rating, Giant foxtail: 2
Giant foxtail; [3]
  Giant foxtail plant response rating: 8
Giant foxtail; [7]
  Plant response rating, Giant foxtail: 9
Giant foxtail; [4]
  Giant foxtail plant response rating: 9
Giant foxtail; [5]
  Giant foxtail plant response rating: 10
Giant foxtail; [6]
  Giant foxtail plant response rating: 10
bamyardgrass; [8]
  Plant response rating, Barnyardgrass (0 to 10 scale, 0 is no effect, 10 is complete control): 0
bamyardgrass; [9]
  Barnyardgrass plant response rating (0 to 10 scale, 0 is no effect, 10 is complete control): 0
bamyardgrass; [10]
  Barnyardgrass plant response rating: 0
bamyardgrass; [11]
  Barnyardgrass plant response rating: 0
crabgrass; [1]
  Crabgrass plant response rating: 2
crabgrass; [2]
  Plant response rating, Crabgrass: 3
crabgrass; [3]
  Crabgrass plant response rating: 8
crabgrass; [7]
  Plant response rating, Crabgrass: 9
crabgrass; [4]
  Crabgrass plant response rating: 9
crabgrass; [5]
  Crabgrass plant response rating: 9
crabgrass; [6]
  Crabgrass plant response rating: 10
rice; [8]
  Plant response rating, Rice (0 to 10 scale, 0 is no effect, 10 is complete control): 0
rice; [9]
  Rice plant response rating (0 to 10 scale, 0 is no effect, 10 is complete control): 0
rice; [10]
  Rice plant response rating: 0
rice; [11]
  Rice plant response rating: 0
Surinam grass; [1]
  B. signalgrass plant response rating: 0
Surinam grass; [2]
  Plant response rating, B. signalgrass: 0
Surinam grass; [3]
  B. signalgrass plant response rating: 3
Surinam grass; [7]
  Plant response rating, B. signalgrass: 7
Surinam grass; [4]
  B. signalgrass plant response rating: 0
Surinam grass; [5]
  B. signalgrass plant response rating: 5
Surinam grass; Preemergence, Rate 250 g/ha
  B. signalgrass plant response rating (0 to 10 scale, 0 is no effect, 10 is complete control): 8
Surinam grass; [6]
  B. signalgrass plant response rating: 10
Duck salad; [8]
  Plant response rating, Ducksalad (0 to 10 scale, 0 is no effect, 10 is complete control): 0
Duck salad; [9]
  Ducksalad plant response rating (0 to 10 scale, 0 is no effect, 10 is complete control): 0
Duck salad; [10]
  Ducksalad plant response rating: 0
Duck salad; [11]
  Ducksalad plant response rating: 0
